Source: patent US20150284342A1, “BIS(FLUOROALKYL)-1,4-BENZODIAZEPINONE COMPOUNDS” (BRISTOL-MYERS SQUIBB COMPANY, priority 2011, published 2015)
Read-outs that look alike come from different tables or passages of the source.

Legend:
[1] = High Throughput (HT) Metabolic Stability Panel, human liver microsomes
Protocol: (§1) Each compound was tested in duplicate.

[2] = test system: Notch 3; test: Notch-CBF1 Transactivation Assay (Notch 3); format: cell-based
Excerpt: (§2) Table 12 denotes respective DNA quantity for the transfections.
(§3) Duplicates were used for each sample.

[3] = High Throughput (HT) Metabolic Stability Panel, mouse liver microsomes
Protocol: as §1

[4] = test system: Notch 1; test: Notch-CBF1 Transactivation Assay (Notch 1); format: cell-based
Excerpt: as §2, §3

[5] = 0.5 μM compound, human liver microsomes, 10 min incubation
[6] = read-out: Notch 3 (IC50), HeLa cells, luciferase, rounded to 2 digits
[7] = 0.5 μM compound, mouse liver microsomes, 10 min incubation
[8] = read-out: Notch 1 (IC50), HeLa cells, luciferase, rounded to 2 digits
[9] = HeLa cells, luciferase, rounded to 2 digits, read-out: Notch 3 (IC50)
[10] = HeLa cells, luciferase, rounded to 2 digits, read-out: Notch 1 (IC50)

SMILES	0.5 μM HLM (% Remaining) [1, 5]	IC50 [2, 6]	0.5 μM MsLM (% Remaining) [3, 7]	IC50 [4, 8]	0.5 μM HLM (% Remaining) ([1]; human, microsomes, 10 min, 0.5 µM, pH 7.4)	IC50 [2, 9]	0.5 μM MsLM (% Remaining) ([3]; mouse, microsomes, 10 min, 0.5 µM, pH 7.4)	IC50 [4, 10]
CC(C)C[C@@H](C(=O)N[C@H]1N=C(c2ccccc2)c2ccccc2N(C)C1=O)[C@H](CCC(F)(F)F)C(N)=O [Comparative Compound 22, reference compound]	39%	48 nM	15%	64 nM				
C=CC[C@H](C(N)=O)[C@@H](CC(C)C)C(=O)N[C@H]1N=C(c2ccccc2)c2cc(Cl)ccc2N(C)C1=O [Comparative Compound 23, reference compound]	19%		9.0%					
CCCC[C@H](C(N)=O)[C@@H](CC(C)C)C(=O)N[C@H]1N=C(c2ccc(Cl)cc2)c2ccccc2N(C)C1=O [Comparative Compound 24, reference compound]	21%		13%					
C=CC[C@H](C(N)=O)[C@@H](CC(C)C)C(=O)N[C@H]1N=C(c2ccccc2)c2ccccc2N(CCC)C1=O [Comparative Compound 25, reference compound]	2.7%		0.18%					
CN1C(=O)[C@@H](NC(=O)[C@H](CC(F)(F)F)[C@H](CCC(F)(F)F)C(N)=O)N=C(c2ccccc2)c2ccccc21 [Example 3, (2R,3S)—N-((3S)-1-Methyl-2-oxo-5-phenyl-2,3-dihydro-1H-1,4-benzodiazepin-3-yl)-2-(2,2,2-trifluoroethyl)-3-(3,3,3-trifluoropropyl)succinamide]	84%	4.7 nM	91%	3.1 nM				
CN1C(=O)[C@@H](NC(=O)[C@H](CCC(F)(F)F)[C@H](CC(F)(F)F)C(N)=O)N=C(c2ccccc2)c2ccccc21 [Example 4, (2R,3S)—N-((3S)-1-Methyl-2-oxo-5-phenyl-2,3-dihydro-1H-1,4-benzodiazepin-3-yl)-3-(2,2,2-trifluoroethyl)-2-(3,3,3-trifluoropropyl)succinamide]	100%	2.5 nM	91%	1.5 nM				
[2H]C([2H])([2H])N1C(=O)[C@@H](NC(=O)[C@H](CCC(F)(F)F)[C@H](CCC(F)(F)F)C(N)=O)N=C(c2ccccc2)c2ccccc21 [Example 5, (2R,3S)—N-((3S)-1-(^2H3)Methyl-2-oxo-5-phenyl-2,3-dihydro-1H-1,4-benzodiazepin-3-yl)-2,3-bis(3,3,3-trifluoropropyl)succinamide]					100%	5.9 nM	98%	1.2 nM
CN1C(=O)[C@@H](NC(=O)[C@H](CCC(F)(F)F)[C@H](CCC(F)(F)F)C(N)=O)N=C(c2ccccc2)c2cc(Cl)ccc21 [Example 6, (2R,3S)—N-((3S)-7-chloro-1-methyl-2-oxo-5-phenyl-2,3-dihydro-1H-1,4-benzodiazepin-3-yl)-2,3-bis(3,3,3-trifluoropropyl)succinamide]	100%	10 nM	100%	6.5 nM				
COc1ccc2c(c1)N(C)C(=O)[C@@H](NC(=O)[C@H](CCC(F)(F)F)[C@H](CCC(F)(F)F)C(N)=O)N=C2c1ccccc1 [Example 7, (2R,3S)—N-((3S)-8-methoxy-1-methyl-2-oxo-5-phenyl-2,3-dihydro-1H-1,4-benzodiazepin-3-yl)-2,3-bis(3,3,3-trifluoropropyl)succinamide]	93%		72%			2.8 nM		1.5 nM
CN1C(=O)[C@@H](NC(=O)[C@H](CCC(F)(F)F)[C@H](CCC(F)(F)F)C(N)=O)N=C(c2ccccc2)c2ccc(F)cc21 [Example 8, (2R,3S)—N-((3S)-8-fluoro-1-methyl-2-oxo-5-phenyl-2,3-dihydro-1H-1,4-benzodiazepin-3-yl)-2,3-bis(3,3,3-trifluoropropyl)succinamide]	96%	8.1 nM	100%	4.9 nM				
COc1ccc2c(c1)C(c1ccccc1)=N[C@H](NC(=O)[C@H](CCC(F)(F)F)[C@H](CCC(F)(F)F)C(N)=O)C(=O)N2C [Example 9, (2R,3S)—N-((3S)-7-methoxy-1-methyl-2-oxo-5-phenyl-2,3-dihydro-1H-1,4-benzodiazepin-3-yl)-2,3-bis(3,3,3-trifluoropropyl)succinamide]	100%	8.2 nM	87%	4.4 nM				
CN1C(=O)[C@@H](NC(=O)[C@H](CCC(F)(F)F)[C@H](CCC(F)(F)F)C(N)=O)N=C(c2ccccc2)c2cc(F)ccc21 [Example 10, (2R,3S)—N-((3S)-7-fluoro-1-methyl-2-oxo-5-phenyl-2,3-dihydro-1H-1,4-benzodiazepin-3-yl)-2,3-bis(3,3,3-trifluoropropyl)succinamide]	96%	4.6 nM	98%	2.9 nM				
CN1C(=O)[C@@H](NC(=O)[C@H](CCC(F)(F)F)[C@H](CCC(F)(F)F)C(N)=O)N=C(c2ccccc2)c2ccc(Cl)cc21 [Example 11, (2R,3S)—N-((3S)-8-chloro-1-methyl-2-oxo-5-phenyl-2,3-dihydro-1H-1,4-benzodiazepin-3-yl)-2,3-bis(3,3,3-trifluoropropyl)succinamide]	97%	2 nM	98%	1.3 nM				
COc1cccc2c1NC(=O)[C@@H](NC(=O)[C@H](CCC(F)(F)F)[C@H](CCC(F)(F)F)C(N)=O)N=C2c1ccccc1 [Example 12, (2R,3S)—N-((3S)-9-methoxy-2-oxo-5-phenyl-2,3-dihydro-1H-1,4-benzodiazepin-3-yl)-2,3-bis(3,3,3-trifluoropropyl)succinamide]	100%	4.2 nM	100%	2.5 nM				
COc1ccc2c(c1)NC(=O)[C@@H](NC(=O)[C@H](CCC(F)(F)F)[C@H](CCC(F)(F)F)C(N)=O)N=C2c1ccccc1 [Example 13, (2R,3S)—N-((3S)-8-methoxy-2-oxo-5-phenyl-2,3-dihydro-1H-1,4-benzodiazepin-3-yl)-2,3-bis(3,3,3-trifluoropropyl)succinamide]	100%		97%			3.8 nM		2.1 nM
COc1ccc2c(c1)C(c1ccccc1)=N[C@H](NC(=O)[C@H](CCC(F)(F)F)[C@H](CCC(F)(F)F)C(N)=O)C(=O)N2 [Example 14, (2R,3S)—N-((3S)-7-methoxy-2-oxo-5-phenyl-2,3-dihydro-1H-1,4-benzodiazepin-3-yl)-2,3-bis(3,3,3-trifluoropropyl)succinamide]	100%		95%			13 nM		5.2 nM
COc1c(C#N)ccc2c1NC(=O)[C@@H](NC(=O)[C@H](CCC(F)(F)F)[C@H](CCC(F)(F)F)C(N)=O)N=C2c1ccccc1 [Example 15, (2R,3S)—N-((3S)-8-cyano-9-methoxy-2-oxo-5-phenyl-2,3-dihydro-1H-1,4-benzodiazepin-3-yl)-2,3-bis(3,3,3-trifluoropropyl)succinamide]	100%	16 nM	93%	12 nM				
NC(=O)[C@@H](CCC(F)(F)F)[C@@H](CCC(F)(F)F)C(=O)N[C@H]1N=C(c2ccccc2)c2ccc(Cl)c(Cl)c2NC1=O [Example 16, (2R,3S)—N-((3S)-8,9-dichloro-2-oxo-5-phenyl-2,3-dihydro-1H-1,4-benzodiazepin-3-yl)-2,3-bis(3,3,3-trifluoropropyl)succinamide]	80%	6.4 nM	91%	4.2 nM				
NC(=O)[C@@H](CCC(F)(F)F)[C@@H](CCC(F)(F)F)C(=O)N[C@H]1N=C(c2ccccc2)c2cccc(F)c2NC1=O [Example 17, (2R,3S)—N-((3S)-9-fluoro-2-oxo-5-phenyl-2,3-dihydro-1H-1,4-benzodiazepin-3-yl)-2,3-bis(3,3,3-trifluoropropyl)succinamide]	100%	7.1 nM	96%	3.6 nM				
NC(=O)[C@@H](CCC(F)(F)F)[C@@H](CCC(F)(F)F)C(=O)N[C@H]1N=C(c2ccccc2)c2cccc(Cl)c2NC1=O [Example 18, (2R,3S)—N-((3S)-9-chloro-2-oxo-5-phenyl-2,3-dihydro-1H-1,4-benzodiazepin-3-yl)-2,3-bis(3,3,3-trifluoropropyl)succinamide]	100%	2.3 nM	100%	0.53 nM				
